According to US7718636B2, “Use of 2-methylene-19-nor-20(S)-1alpha,25dihydroxy vitamin d3 to inhibit mammary tumor” (Wisconsin Alumni Research Foundation, priority 2003, dated 2010):

What was measured:
calcium from bone = settings: compared to 1α,25-dihydroxyvitamin D3; cited from earlier work
[1] = test system: aged, ovariectomized female rats; assay: Survival of aged ovariectomized female rats given 2-MD orally each day for 7.5 months; type: in vivo, rat
Method: Thus, the experiment was carried out as follows:
(§1) 48 retired female breeder rats of 12 months of age were obtained from the Harlan Sprague-Dawley Company. Upon arrival, the animals were ovariectomized or sham-operated. These animals were housed in individual hanging wire cages and provided water ad libitum. Food consumption was restricted to 19-21 g/day. Animals were maintained on a purified diet described by Suda et al (J. Nutr. 1970) which contained 0.47% calcium and 0.3% phosphorus. In addition, these animals received supplements of vitamin A, E, D, and K as described in the Suda paper. One half of the animals received each day 0.1 ml of Wesson Oil while the remaining one-half of the animals received orally the 0.1 ml of Wesson Oil containing 5 or 7 ng/2-MD/kg body weight. The animals were monitored weekly for body weight, general health and survival. These animals were followed for 7.5 months.

[2] = Body weight in aged female rats; type: in vivo; settings: at 7-1/2 months, 5 or 7 ng 2-MD/kg orally each day
Excerpt: as §1

In the case of `C=C1[C@H](O)CC(=C/C=C2\CCC[C@]3(C)[C@@H]([C@@H](C)CCCC(C)(C)O)CC[C@@H]23)C[C@H]1O` [2-MD, 2-methylene-19-nor-20(S)-1α,25-dihydroxyvitamin D3], the “ability to mobilize calcium from bone” value (calcium from bone) is given as “very high activity”, the “survival and general health over the entire period” value ([1]; 5 or 7 ng 2-MD/kg body weight orally each day, 7.5 months) is given as “survived the entire period and were in good health” and the survival rate ([1]; aged, ovariectomized female rats, oral 2-MD each day, 7.5 months) is given as 100%. The “Survival Ratio #premature deaths/total # animals” value ([1]; ovariectomized or sham-operated retired female breeder rats, 12 months of age, 5 or 7 ng 2-MD/kg body weight orally each day in Wesson Oil, followed for 7.5 months) was 0/24 and the “Body Weight Final” value [2] was 382 ± 10 g.
